Test results published in patent US8858995B2, “Methods and compositions for controlled delivery of phytochemical agents” (priority 2008, dated 2014).
“And” between values parts separate entries of the source, which are not always exact repeats. Equal entries are not always repeated.

Legend:
[1] = test system: CYP3A4; assay: CYP3A4 activity in hepatic microsomes; assay type: in vivo, ACI rats
Protocol: To evaluate the xenobiotic-metabolizing enzymes, liver samples from the animals (approximately 100 mg) were homogenized in 0.25 M sucrose buffer (pH 7.4) at 3000 rpm with Polytron. The homogenate was centrifuged at 3000 g for 20 min at 4° C. to separate the nuclear content, and the supernatant was then collected and again centrifuged at 11,000 g for 20 min at 4° C. to separate the mitochondria. The post-mitochondrial supernatant was then transferred to ultracentrifuge tubes and finally centrifuged at 100,000 g for 1 h at 4° C. to separate the microsomes. The pellet was suspended in 1 ml sucrose buffer, aliquoted and stored at −80° C. until use.

[2] = In vitro release from coated (and extruded) polymeric implants; assay type: physicochemical; conditions: 37° C., no serum
Protocol: To formulate the “coated” polymeric implants, blank P-80 implants (1.4 mm dia) were then prepared by dissolving P-80:F68 (9:1) in dichloromethane, followed by evaporation of the solvent in a Petri dish under hood and extrusion of the molten polymer through a silastic tubing mold, similar to the methodologies described herein above. […] For coating, one end of the blank implant (2.5-3.5 cm) was inserted into a silastic tube plug (6 mm long, 1.4 mm dia) while the other end of the plug was attached with a pipet tip. Coatings were then added by dipping the blank implant into the solution with intermittent drying with cool air using a commercial hair dryer and placing them under hood. […] The assembly was placed under hood overnight to remove the residual DCM, implants were excised in 1 or 2 cm lengths and stored in amber vials under argon at -20° C. until used. The rate of in vitro release for the implants was subsequently measured. […] The vials were placed in a water bath (Julabo S W 23, Seelback, Germany) at 37° C. with constant agitation at 110 rpm. The medium was changed every 24 h.

[3] = In vitro release of curcumin from PCL-121K:PEG-8K (65:35) implants; assay type: physicochemical
Protocol: Both solutions were then mixed together to prepare a homogenous solution of drug and polymers. The solvents were evaporated on a water bath maintained at 65° C. followed by overnight drying under vacuum at 65° C. to remove residual solvents to prepare an amorphous molecular dispersion of drug in polymer. The dried molten polymer was then extruded through silastic tubing mold (internal diameter 3.4 mm) attached to a syringe. After a few minutes, the cylindrical implants were removed from the tubing and excised into desired lengths (2.0 cm, 200 mg containing 40 mg drug) and stored at −20° C. under argon until used.
PBS was supplemented with BCS (10% v/v) to mimic extracellular fluid composition and to simulate the in vivo situation. Amber-colored vials (n=3) containing a 2-cm implant each were incubated at 37±0.5° C. in a reciprocating (150 rpm) shaker water bath (Julabo S W23, Seelbach, Germany), and the release medium was changed after every 24 h.

[4] = test system: B[a]P-induced DNA adducts
[5] = Plasma, liver and brain curcumin levels, implants versus diet (HPLC-fluorescence); assay type: in vivo, ACI rats; conditions: for plasma curcumin level: curcumin diet
From the text: The in vivo cumulative release was studied in female Augustus Copenhagen Irish (ACI) rats following an approved protocol from an Institutional Animal Care and Use Committee (IACUC). […] All the animals were provided food and water ad libitum. Sham and curcumin implants were subcutaneously grafted at the back of the rats and were monitored for their diet intake and body weight. Animals were euthanized at different time intervals by asphyxiation to collect blood, liver, brain, local tissues and implants. All the tissues were snap frozen in liquid nitrogen and stored at −80° C. until further analysis.
Plasma pooled from all the animals (1.5 ml) was mixed with […] of 0.5 M sodium acetate to reduce the pH to 5. Plasma was then extracted three times with 3 ml ethyl acetate. Ethyl acetate extracts were pooled and dried under vacuum. The dried residue was reconstituted in 100 μl of acetonitrile, and one-half of the solution was analyzed by HPLC. Similarly, liver or brain tissue (approximately 500 mg) from each animal was homogenized in 3 ml PBS (pH 7.4) containing 200 μl sodium acetate (0.5 M). The homogenate was then extracted twice with two volumes of ethyl acetate. After evaporation of ethyl acetate under vacuum, the residue was reconstituted in 1 ml acetonitrile. The solution was filtered through 0.45 μm glass-microfiber filter and evaporated again under vacuum. The residue was finally reconstituted in 100 μl acetonitrile, and one-half of it was analyzed by HPLC using a Shimadzu liquid chromatography system equipped with LC-10ADVP pump, RF-10AXL fluorescence detector and a Shimadzu C18 column of 5 μm particles (250×4.6 mm). The three curcuminoids were separated by using acetonitrile and 1% citric acid (adjusted to pH 2.5) at a flow rate of 1 ml/min with a gradient elution in which acetonitrile concentration was increased from 0% to 30% in first 5 min, followed by an increase to 45% in next 5-20 min. Acetonitrile was then maintained at this ratio till 36 min. Curcuminoids were detected using 410 and 500 nm as excitation and emission maxima, respectively, in the fluorescence detector.

[6] = curcumin implants, B[a]P implant 1 cm, 10 mg, 30 days post B[a]P
[7] = curcumin implants, sustained low dose B[a]P, 30 days
[8] = female, ACI (Augustus Copenhagen Irish), rat, plasma, oral, 1000 ppm in diet

COc1cc(/C=C/C(=O)CC(=O)/C=C/c2ccc(O)c(OC)c2)ccc1O [curcumin]
CYP3A4 activity ([1]; curcumin diet, 12 days): reduced to basal levels
CYP3A4 activity compared to untreated animals ([1]; curcumin diet, after 4 days): significant higher
CYP3A4 activity ([1]; curcumin diet, day 1): slightly higher activity
increase in CYP3A4 activity compared with sham implants ([1]; curcumin implants): became significant only after 25 days
CYP3A4 activity ([1]; curcumin implants, after 3 months): remained consistently upregualated
release in PBS alone [2]: essentially no release
curcumin release after 1 week [3]: approximately 200 μg/day
curcumin release after 31 days [3]: approximately 120 μg/day
curcumin release on day 2 [3]: approximately 390 μg
cumulative release after 1 month ([3]; 40 mg per implant): approximately 15 % of total agent load
curcumin release on day 1 ([3]; 2-cm implant, 40 mg): approximately 570 μg
B[a]P-induced DNA adducts in liver and lung versus sham implant ([4]; 1 cm matrix 20% w/w curcumin, B[a]P implant, 30 days): inhibited the B[a]P-induced DNA adducts in both the liver and lung
inhibition of adducts, liver [4, 6]: 83%
inhibition of adducts, lung [4, 6]: 65%
DNA adduct level, liver [4, 7]: 4±0.7 adducts/10^9 nucleotides
DNA adduct level, lung [4, 7]: 9±5 adducts/10^9 nucleotides
liver curcumin level ([5]; both routes (implants, diet), day 1): 25 to 30 ng
liver curcumin level ([5]; both routes, after 12 days): 10 to 15 ng
plasma curcumin level ([5]; 25 and 90 days): undetectable
plasma curcumin level ([5]; day 1): not observed
brain curcumin level ([5]; dietary administration 1000 ppm, all the time points): 2 to 3 ng/g
concentration at 1 day ([5]; female, ACI (Augustus Copenhagen Irish), rat, brain, subcutaneous, 2 2-cm curcumin implants, implant route, day 1): 30 ± 7.3 ng/g
Kp ([5]; female, ACI (Augustus Copenhagen Irish), rat, liver (against plasma), other: both routes (subcutaneous implants, diet), via both routes): 10 to 20
concentration at 4 day [5, 8]: 0.3 ng/mL and 0.815 nM
concentration at 12 days [5, 8]: 0.543 nM and 0.2 ng/mL
concentration at 3 months ([5]; female, ACI (Augustus Copenhagen Irish), rat, plasma, subcutaneous, 2 2-cm curcumin implants, implants, after 3 months): ~0.2 ng/mL and 0.543 nM
concentration at 1 day ([5]; female, ACI (Augustus Copenhagen Irish), rat, plasma, subcutaneous, 2 2-cm curcumin implants, implants, day 1): 9 nM
concentration at 4 day ([5]; female, ACI (Augustus Copenhagen Irish), rat, plasma, subcutaneous, 2 2-cm curcumin implants, implants, day 4): 1.4 ng/mL and 4 nM
concentration at 1 day ([5]; female, ACI (Augustus Copenhagen Irish), rat, subcutaneous, 2 2-cm curcumin implants, implants (two 2-cm), day 1, pooled plasma): 3.3 ng/mL
brain curcumin level ([5]; implant route, after 12 days, same levels after 90 days): around 7.26±2.45 ng/g tissue
curcumin concentration in brain tissue, implant route higher than diet ([5]; rat, in vivo): approximately 3.5 fold
plasma and liver concentrations observed in the in vivo study ([5]; rat, in vivo): 78 to 95 nM
